Test results taken from patent publication US20190389865A1, “SUBSTITUTED PYRROLO[1,2-a]TRIAZINES AND RELATED COMPOUNDS AND THEIR USE IN THE TREATMENT OF MEDICAL DISORDERS” (Lysosomal Therapeutics Inc., priority 2016, published 2019).
In brackets after ≈: the same amount, converted by molar mass.

What was measured:
[1] = Compound solubility in water; assay type: physicochemical
[2] = molecular target: T1, glucocerebrosidase (Gcase) (Homo sapiens, UniProt P04062); test: Glucocerebrosidase (Gcase) activation assay, 4-methylumbelliferyl-beta-D-glucopyranoside substrate, fluorescence; assay type: biochemical; settings: 10 nM GCase, 100 nM saposin C, pH 4.7; for activation at 0.1 µM: 0.1 μM test compound, read-out: Percent Gcase Activation, 0.1 μM Test Compound; for activation at 1 µM: 1 μM test compound, read-out: Percent Gcase Activation, 1 μM Test Compound
T1 sequence (P04062 40-536): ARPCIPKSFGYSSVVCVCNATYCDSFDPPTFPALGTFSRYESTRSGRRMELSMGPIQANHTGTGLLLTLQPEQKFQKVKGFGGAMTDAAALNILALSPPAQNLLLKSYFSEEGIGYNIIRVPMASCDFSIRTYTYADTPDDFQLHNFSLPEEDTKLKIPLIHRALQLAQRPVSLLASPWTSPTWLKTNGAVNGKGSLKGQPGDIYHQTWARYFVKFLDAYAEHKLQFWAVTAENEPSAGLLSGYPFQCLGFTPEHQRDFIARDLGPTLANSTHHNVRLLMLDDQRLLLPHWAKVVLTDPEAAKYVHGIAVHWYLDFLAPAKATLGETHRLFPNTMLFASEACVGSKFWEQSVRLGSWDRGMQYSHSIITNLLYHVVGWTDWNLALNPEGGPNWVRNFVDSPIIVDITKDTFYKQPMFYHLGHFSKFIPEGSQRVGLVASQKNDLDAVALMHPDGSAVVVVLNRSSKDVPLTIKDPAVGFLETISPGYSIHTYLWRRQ
Protocol: The ability of exemplary compounds to activate glucocerebrosidase (Gcase) was measured.
A 484 μL aliquot of a 1.0 mg/mL solution of phosphatidylserine (PS) (Sigma P7769) in chloroform was evaporated under a stream of nitrogen for 1 hour. The lipid film was dissolved over 4 minutes of vigorous vortexing in 40 mL of 176 mM K2HPO4/50 mM citric acid (pH 4.7) containing 7.5 μL of triton X-100, resulting in a mixed micellar preparation with a composition of 0.32 mM triton and 0.37 mol % PS. 4-Methylumbelliferyl-beta-D-glucopyranoside (ACROS-337025000) was dissolved in the micellar solution to a final concentration of 2 mM for use as the reaction substrate.
Test compounds were diluted to the desired concentrations with dimethylsulfoxide (DMSO) from 10 mM stocks, and 0.41 μL of the DMSO compound mixture was added to 100 μL of micellar solution containing 10 nM GCase and 100 nM saposin C (Enzo ALX-201-262-C050). Pre-incubation was allowed to occur for 30 minutes at room temperature, after which the reaction was initiated by combining 25 μL of substrate solution with 25 μL of compound/GCase/saposin mixture. The reaction proceeded for 15 minutes at room temperature and was stopped by adding 150 μL of 1M glycine, pH 12.5. The endpoint of the reaction was monitored by measuring fluorescence intensity (excitation: 365 nm; emission: 440 nm) on a SpectraMax i3 instrument (Molecular Devices). […]

Cc1nc(-c2cccc(C#N)c2)nc2c(C(=O)NC(C3CC3)C(F)(F)F)ccn12 (stereo not drawn) [2-(3-Cyanophenyl)-N-(1-cyclopropyl-2,2,2-trifluoroethyl)-4-methylpyrrolo[1,2-a][1,3,5]triazine-8-carboxamide]
solubility [1]: 0.6 µg/mL (≈ 1.5 µM)
activation at 0.1 µM [2]: > 20%
activation at 1 µM [2]: > 20%

Cc1nc(C)c2cccc(C(=O)Nc3ccc4c(c3)CCC4)c2n1 [N-(2,3-Dihydro-1H-inden-5-yl)-2,4-dimethylquinazoline-8-carboxamide]
solubility [1]: 0.5 µg/mL (≈ 1.58 µM)
activation at 0.1 µM [2]: < 5%
activation at 1 µM [2]: 5 to 20%

CCCCCO[C@H]1CC[C@H](NC(=O)c2cccc3c(C)nc(C)nc23)CC1 [2,4-Dimethyl-N-((1R,4R)-4-(pentyloxy)cyclohexyl)quinazoline-8-carboxamide]
solubility [1]: 7.6 µg/mL (≈ 20.6 µM)
activation at 0.1 µM [2]: < 5%
activation at 1 µM [2]: 5 to 20%

CCCCCO[C@H]1CC[C@H](NC(=O)c2ccn3c(C)nc(C)nc23)CC1 [2,4-Dimethyl-N-((1S,4S)-4-(pentyloxy)cyclohexyl) pyrrolo[1,2-a][1,3,5]triazine-8-carboxamide]
solubility [1]: 12.5 µg/mL (≈ 35 µM)
activation at 0.1 µM [2]: 5 to 20%
activation at 1 µM [2]: > 20%

Cc1nc(-c2cccc(C(N)=O)c2)nc2c(C(=O)NC(C3CC3)C(F)(F)F)ccn12 (stereo not drawn) [2-(3-Carbamoylphenyl)-N-(1-cyclopropyl-2,2,2-trifluoroethyl)-4-methylpyrrolo[1,2-a][1,3,5]triazine-8-carboxamide]
solubility [1]: 1.9 µg/mL (≈ 4.55 µM)
activation at 0.1 µM [2]: > 20%
activation at 1 µM [2]: > 20%

C#Cc1ccc(NC(=O)c2ccn3c(C)nc(C)nc23)cc1 [N-(4-Ethynylphenyl)-2,4-dimethylpyrrolo[1,2-a][1,3,5]triazine-8-carboxamide]
solubility [1]: 1.8 µg/mL (≈ 6.2 µM)
activation at 0.1 µM [2]: < 5%
activation at 1 µM [2]: > 20%

CCC(NC(=O)c1ccn2c(C)nc(C)nc12)c1ccccc1 (stereo not drawn) [2,4-Dimethyl-N-(1-phenylpropyl)pyrrolo[1,2-a][1,3,5]triazine-8-carboxamide]
solubility [1]: 17.4 µg/mL (≈ 56.4 µM)
activation at 0.1 µM [2]: 5 to 20%
activation at 1 µM [2]: > 20%

Cc1nc(-c2ccc(F)cc2)nc2c(C(=O)NC(C)(C)C3CC3)ccn12 [N-(2-Cyclopropylpropan-2-yl)-2-(4-fluorophenyl)-4-methylpyrrolo[1,2-a][1,3,5]triazine-8-carboxamide]
solubility [1]: 0.5 µg/mL (≈ 1.42 µM)
activation at 0.1 µM [2]: < 5%
activation at 1 µM [2]: > 20%

C#Cc1ccc(NC(=O)c2cccc3c(C)nc(C)nc23)cc1 [N-(4-Ethynylphenyl)-2,4-dimethylquinazoline-8-carboxamide]
solubility [1]: 0.7 µg/mL (≈ 2.32 µM)
activation at 0.1 µM [2]: < 5%
activation at 1 µM [2]: < 5%

Cc1nc(C)n2ccc(C(=O)NC3(C)CCCc4ccccc43)c2n1 (stereo not drawn) [2,4-Dimethyl-N-(1-methyl-1,2,3,4-tetrahydronaphthalen-1-yl)pyrrolo[1,2-a][1,3,5]triazine-8-carboxamide]
solubility [1]: 5.1 µg/mL (≈ 15.3 µM)
activation at 0.1 µM [2]: 5 to 20%
activation at 1 µM [2]: > 20%

CCC(NC(=O)c1cccc2c(C)nc(C)nc12)c1ccccc1 (stereo not drawn) [2,4-Dimethyl-N-(1-phenylpropyl)quinazoline-8-carboxamide]
solubility [1]: 8.7 µg/mL (≈ 27.2 µM)
activation at 0.1 µM [2]: < 5%
activation at 1 µM [2]: 5 to 20%

Cc1nc(C)n2ccc(C(=O)NC(C)(C)C3CC3)c2n1 [N-(2-Cyclopropylpropan-2-yl)-2,4-dimethylpyrrolo[2-a][1,3,5]triazine-8-carboxamide]
solubility [1]: 38.4 µg/mL (≈ 141 µM)
activation at 0.1 µM [2]: < 5%
activation at 1 µM [2]: 5 to 20%

Cc1nc(C)n2ccc(C(=O)NC(C3CC3)C(F)(F)F)c2n1 (stereo not drawn) [N-(1-Cyclopropyl-2,2,2-trifluoroethyl)-2,4-dimethylpyrrolo[1,2-a][1,3,5]triazine-8-carboxamide]
solubility [1]: 28.2 µg/mL (≈ 90.3 µM)
activation at 0.1 µM [2]: 5 to 20%
activation at 1 µM [2]: > 20%

Cc1nc(-c2ccc(F)cc2)nc2c(C(=O)NC(C3CC3)C(F)(F)F)ccn12 (stereo not drawn) [N-(1-Cyclopropyl-2,2,2-trifluoroethyl)-2-(4-fluorophenyl)-4-methylpyrrolo[1,2-a][1,3,5]triazine-8-carboxamide]
solubility [1]: 0.1 µg/mL (≈ 0.255 µM)
activation at 0.1 µM [2]: > 20%
activation at 1 µM [2]: > 20%

COc1cc(-c2nc(C)n3ccc(C(=O)NC(C)C(F)(F)F)c3n2)ccc1F (stereo not drawn) [2-(4-Fluoro-3-methoxyphenyl)-4-methyl-N-(1,1,1-trifluoropropan-2-yl)pyrrolo[1,2-a][1,3,5]triazine-8-carboxamide]
solubility [1]: 1 µg/mL (≈ 2.52 µM)
activation at 0.1 µM [2]: > 20%
activation at 1 µM [2]: > 20%

Cc1nc(-c2cccc(F)c2)nc2c(C(=O)NC(C3CC3)C(F)(F)F)ccn12 (stereo not drawn) [N-(1-Cyclopropyl-2,2,2-trifluoroethyl)-2-(3-fluorophenyl)-4-methylpyrrolo[1,2-a][1,3,5]triazine-8-carboxamide]
solubility [1]: 0.2 µg/mL (≈ 0.51 µM)
activation at 0.1 µM [2]: > 20%
activation at 1 µM [2]: > 20%

Cc1nc(C)c2cccc(C(=O)NC3CCCc4ccccc43)c2n1 (stereo not drawn) [2,4-Dimethyl-N-(1,2,3,4-tetrahydronaphthalen-1-yl)quinazoline-8-carboxamide]
solubility [1]: 5 µg/mL (≈ 15.1 µM)
activation at 0.1 µM [2]: < 5%
activation at 1 µM [2]: 5 to 20%

Cc1nc(C)n2ccc(C(=O)Nc3ccc4c(c3)CCC4)c2n1 [N-(2,3-Dihydro-1H-inden-5-yl)-2,4-dimethylpyrrolo[1,2-a][1,3,5]triazine-8-carboxamide]
solubility [1]: 1.2 µg/mL (≈ 3.92 µM)
activation at 0.1 µM [2]: < 5%
activation at 1 µM [2]: > 20%
